Reference: patent US20160297763A1, “Heteroaryl hydroxamic acid derivatives and their use in the treatment, amelioration or prevention of a viral disease” (priority 2011, published 2016)
pIC50, pKd: −log10 of the molar value.

Key:
[1] = ALPHA screen
[2] = test system: influenza A virus A/Aichi/2/68 (H3N2); assay: Cytopathic effect (CPE) assay H3N2; type: cell-based, influenza A virus (H3N2) on MDCK cells; conditions: Influenza A virus; for inhibition at 2 µM: H3N2, activity conc 2 (μM per method); for inhibition at 5 µM: H3N2, activity conc 5 (μM per method); for pIC50: H3N2, read-out: CPE H3N2 IC50; for inhibition at 50 µM: H3N2, activity conc 50 (μM per method); for inhibition at 20 µM: H3N2, activity conc 20 (μM per method)
Method in brief: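 MDCK cells infected with A/Aichi/2/68 (H3N2) at MOI 0.05 in trypsin-containing medium, compound (generally 25 μM and 250 μM, 1% DMSO) added together with virus; 48 hrs at 37° C. Viability by ATP luminescence; % CPE reduction = infected-treated minus infected-untreated RLU, normalized to uninfected-treated viability.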

[3] = molecular target: PB2 cap binding domain (CBD) (Influenza A virus, UniProt Q9Q0V1); assay: biochemical; set-up: species or system avian H5N1 influenza virus
Chain of PB2 cap binding domain (CBD) (Q9Q0V1 318-483 limits assumed): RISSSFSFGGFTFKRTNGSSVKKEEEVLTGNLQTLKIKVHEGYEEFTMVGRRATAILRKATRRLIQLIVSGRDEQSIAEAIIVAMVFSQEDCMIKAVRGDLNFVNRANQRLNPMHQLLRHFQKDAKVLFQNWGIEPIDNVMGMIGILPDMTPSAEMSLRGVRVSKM

[4] = molecular target: PA-Nter (Influenza A virus, UniProt P31343); assay: Biacore PA-Nter binding; conditions: activity conc 50
[5] = read-out: CPE H3N2 reduction (%)

| Compound | pKd [3] | pIC50 [2] | inhibition at 50 µM [2, 5] [%] | also measured |
| --- | --- | --- | --- | --- |
| Cc1c(-c2ccc(F)cc2F)sc2nc(N)[nH]c(=O)c12 [SAV-7610] | 5.42 |  |  | EC50 [1]: 0.62 µM; inhibition at 2 µM [2, 5]: -1.6% |
| Cc1c(-c2ccccc2)sc2nc(N)[nH]c(=O)c12 [SAV-7475] | 5.34 | 4.68 |  | Biacore PA-Nter Binding (RU) [4]: 13.16 RU; inhibition at 5 µM [2, 5]: 8.9% |
| Cc1c(-c2ccc(Cl)cc2F)sc2nc(N)[nH]c(=O)c12 [SAV-7618] | 6.19 | 4.37 | 77.4 |  |
| Cc1c(-c2c(F)ccc(Cl)c2F)sc2nc(N)[nH]c(=O)c12 [SAV-7637] | 5.96 | 4.74 |  | inhibition at 5 µM [2, 5]: 1.5% |
| COc1cc(-c2sc3nc(N)[nH]c(=O)c3c2C)ccc1Cl [SAV-7619] | 5.96 |  |  | inhibition at 2 µM [2, 5]: 3.4% |
| Cc1c(-c2ccccc2)sc2nc(NCCO)[nH]c(=O)c12 [SAV-7577] | 5.17 |  |  | inhibition at 20 µM [2, 5]: 2.85% |
| Cc1c(-c2cccc(C(N)=O)c2)sc2nc(N)[nH]c(=O)c12 [SAV-7599] | 5.28 |  |  | inhibition at 20 µM [2, 5]: -0.7% |
| Cc1c(-c2cccc(C(F)(F)F)c2)sc2nc(N)[nH]c(=O)c12 [SAV-7581] | 5.85 | 4.77 | 87.8 |  |
| Cc1c(-c2cccc(C#N)c2F)sc2nc(N)[nH]c(=O)c12 [SAV-7627] | 5.38 | 5.00 | 71.2 |  |
| Cc1ccc(-c2sc3nc(N)[nH]c(=O)c3c2C)cc1 [SAV-7585] | 5.70 | 5.46 |  | inhibition at 2.5 µM ([2]; H3N2, activity conc 2.5 (μM per method), read-out: CPE H3N2 reduction (%)): 28.9% |
| Cc1c(-c2ccc(Cl)c(F)c2)sc2nc(N)[nH]c(=O)c12 [SAV-7624] | 6.70 | 4.19 |  |  |
| Cc1c(-c2ccc(F)c(C#N)c2F)sc2nc(N)[nH]c(=O)c12 [SAV-7628] | 5.14 | 4.37 | 84.3 |  |
| Cc1c(-c2ccc(F)c(C(F)(F)F)c2)sc2nc(N)[nH]c(=O)c12 [SAV-7613] | 5.82 |  | 2.5 |  |
| Cc1c(-c2ccnc(Cl)c2F)sc2nc(N)[nH]c(=O)c12 [SAV-7633] | 5.92 | 4.41 | 63.1 |  |
| Cc1c(-c2cc(C#N)ccc2F)sc2nc(N)[nH]c(=O)c12 [SAV-7615] | 5.52 | 4.92 |  | inhibition at 20 µM [2, 5]: 59.2% |
| Cc1c(C2=CCNCC2)sc2nc(N)[nH]c(=O)c12 [SAV-7614] | 3.72 |  | 10.6 |  |
| Cc1c(-c2ccc(F)cc2)sc2nc(N)[nH]c(=O)c12 [SAV-7601] | 5.96 |  | 69.2 |  |
